Results on three compounds are retold here after patent US20060275847A1, “Method for assessing biofilms” (priority 2002, published 2006).

Assay type in all cases: cell-based, Escherichia coli
The test system of experiment [1] is tac promoter (GFP expression) in E. coli CL182. As to the kind of experiment: GFP expression from the IPTG responsive tac promoter in adhered CL182. Particulars: without IPTG versus with IPTG (0.2 μM) in Luria broth. On the procedure: (§1) The strains were mixed and grown in the presence of selective antibiotics (tetracycline, ampicillin or chloramphenicol) and the effects were visualised using the IN Cell Analyzer.
(§2) E. coli cultures were grown in batch culture at 37° C. for 16 hours under selective pressure. Cells were pelleted by centrifugation, washed and resuspended in cold PBS. OD600 mn was normalised (to 1) for both cultures and solutions were diluted ten fold in cold PBS. Cells (100 μl) were allowed to settle and adhere to the surface of a Packard microtitre plate (Packard #6005182) at 4° C. for 1 hour. Adhered E. coli were washed twice with PBS (100 μl). Luria broth (100 μl) with or without IPTG (0.2 μM), and ampicillin (100 μg/ml), tetracycline (10 μg/ml) and chloramphenicol (34 μg/ml) were added to adhered cells and incubated at 37° C. for 4 hours and 16 hours. Cells were washed twice with PBS and incubated for 10 minutes in Hoechst 33342 (0.1 μM in PBS). Cells were washed in PBS and imaged sequentially using the UV (365 nm) and blue (488 nm) laser lines to excite Hoechst 33342 and GFP respectively. […]
(§3) The images were then analysed using the algorithms described in FIGS. 7 to 14. […] In addition, the overlap between green and blue fluorescent biofilm was calculated in 3D.

A further experiment has as its system XL1-blue and CL182 cells. Briefly: Differential 3D analysis of mixed adhered E. coli cultures grown with selective antibiotics. As to conditions: for inhibition of biofilm development: summary statement referring to FIGS. 17 and 18. On the procedure:
as §1
E. coli cultures were grown in batch culture at 37° C. for 16 hours under selective pressure. Cells were pelleted by centrifugation, washed and resuspended in cold PBS. OD600 mn was normalised (to 1) for both cultures and solutions were diluted ten fold in cold PBS. Cells (100 μl) were allowed to settle and adhere to the surface of a Packard microtitre plate (Packard #6005182) at 4° C. for 1 hour. Adhered E. coli were washed twice with PBS (100 μl). Luria broth (100 μl) with or without IPTG (0.2 μM), and ampicillin (100 μg/ml), tetracycline (10 μg/ml) and chloramphenicol (34 μg/ml) were added to adhered cells and incubated at 37° C. for 4 hours and 16 hours. Cells were washed twice with PBS and incubated for 10 minutes in Hoechst 33342 (0.1 μM in PBS). Cells were washed in PBS and imaged sequentially using the UV (365 nm) and blue (488 nm) laser lines to excite Hoechst 33342 and GFP respectively. Emission light was captured using the 450BP65 and 565BP50 filters and collected as 12 bit images; 24 slices were acquired per condition with 1 μm spacing between them.
The images were then analysed using the algorithms described in FIGS. 7 to 14. The voxel dimensions were established prior to conducting the experiment using sub-resolution and super-resolution beads. The analysis thus provides data on the amount of biofilm in both colour planes in three dimensions as described previously. In addition, the overlap between green and blue fluorescent biofilm was calculated in 3D.

In the next experiment the test system is E. coli XL1-blue. As to the kind of experiment: Differential 3D analysis of adhered E. coli cultures (confocal imaging, adhered culture volume). As to conditions: Luria broth, chloramphenicol 34 μg/ml, 37° C., 4 hours and 16 hours. On the procedure:
as §1, §2, §3

In a further experiment the test system is E. coli CL182. Described as above. As to conditions: Luria broth, chloramphenicol 34 μg/ml, 37° C., 4 hours and 16 hours. How it is done:
as §1, §2, §3

In the case of `CC(C)S[C@@H]1O[C@H](CO)[C@H](O)[C@H](O)[C@H]1O` [IPTG], the “reduction in the expression of GFP from the tac promoter by CL182 in the absence of IPTG” value in experiment [1] is ~25%.

Take `O=C(N[C@H](CO)[C@H](O)c1ccc([N+](=O)[O-])cc1)C(Cl)Cl` [chloramphenicol]: the “inhibition of biofilm development” value in the experiment on XL1-blue and CL182 cells is listed as “differentially inhibit”. Further, the “inhibition of growth of XL1-blue” value in the experiment on E. coli XL1-blue is on record as “strongly inhibited”. Besides, the “inhibition of growth of CL182” value with E. coli CL182 is recorded as “strongly inhibited”.

Take `CC1(C)S[C@@H]2[C@H](NC(=O)[C@H](N)c3ccccc3)C(=O)N2[C@H]1C(=O)O` [ampicillin]: the “differential inhibition of growth of XL1-blue and CL182 cells” value with XL1-blue and CL182 cells (ampicillin 100 μg/ml, tetracycline 10 μg/ml, 37° C., 4 hours and 16 hours, XL1-blue tetracycline resistant, CL182 ampicillin resistant) was “Differential inhibition”. Also, in the experiment with XL1-blue and CL182 cells, the “inhibition of biofilm development” value is listed as “differentially inhibit”.
